From article PMC11521309, “A novel 4-aminoquinoline chemotype with multistage antimalarial activity and lack of cross-resistance with PfCRT and PfMDR1 mutants” (PLOS Pathogens, 2024)
Where “and” joins values, the source holds several entries; their conditions need not be identical. Identical values can stand only once. Like-named read-outs stand apart in the source and are kept apart here.

Key:
[1] = tested on: Hz formation in ABS P. falciparum 3D7 parasites; assay: Cellular heme fractionation assay; type: cell-based, Plasmodium falciparum
Protocol: A heme fractionation assay was used to measure the inhibition of Hz formation in cultured ABS P. falciparum 3D7 parasites as previously described. […] Late trophozoites were harvested after 32 hours of incubation by lysing RBCs with 0.05% saponin followed by multiple washes with 1 × PBS (pH 7.5) to remove any residual traces of hemoglobin. The parasite pellet was resuspended in PBS and the total number of trophozoites isolated was quantified using flow cytometry. Contents of the trophozoite pellet were released by hypotonic lysis and sonication. After centrifugation, treatments with HEPES buffer (pH 7.4), sodium dodecyl sulfate, pyridine, and NaOH, allowed us to separate the fractions corresponding to the different heme species of interest. A microplate reader was employed to measure the UV-visible spectrum of each heme fraction as a Fe(III)heme-pyridine complex. Fractions of undigested hemoglobin, “free” heme, and Hz were quantified using a heme standard curve based on the mass of each heme-Fe species per mature trophozoite (fg/cell), obtained by dividing the total amount of each heme species by the corresponding number of parasites in that fraction as determined by flow cytometry. Statistical comparisons and analyses for trends employed Students’ t-tests (GraphPad Prism version 9).

[2] = tested on: P. berghei ookinete formation; assay: In vitro inhibition of ookinete formation (nLuc conversion assay), 24 h; type: cell-based, Plasmodium berghei; details: Plasmodium berghei; for activity at 10 µM: read-out: % Inhibition of ookinete conversion, 10 uM; for activity at 25 µM: read-out: % Inhibition of ookinete conversion, 25 uM; for activity at 100 µM: read-out: % Inhibition of ookinete conversion, 100 uM
Protocol: To measure the inhibition of gamete conversion into ookinetes, a mutant luciferase-expressing P. berghei line (nLuc) was intraperitoneally injected into BALB/c mice. After 3–4 days, gametocyte-carrying blood samples were collected. In vitro compound testing was carried out by exposing 4 μL of infected blood mixed with 80 μL of culture medium (RPMI-1640 supplemented with 25 mM HEPES, 50 mg/L hypoxanthine, and 1% penicillin/streptomycin/neomycin at pH 8.3) to a range of drug concentrations for 24 hours at 21°C. Following the incubation, 20 μL of nLuc substrate (Nano-Glo Luciferase Assay System, Promega) was added to each well, and luminescence was measured in a luminometer. Increased light emission correlated with nLuc production and subsequent luciferase activity due to in vitro fertilization and ookinete conversion, as luciferase expression in this parasite line is regulated by the CTRP promoter that is ookinete-specific. Conversion inhibition was calculated as the percentage of luciferase activity of drug-exposed wells relative to untreated ones, from which IC50 values were interpolated.

[3] = 0.5x IC50, 32 h, single replicates
[4] = 0.5–3.0 × IC50 vs untreated control
[5] = 1x IC50, 32 h, single replicates
[6] = 2x IC50, 32 h, single replicates
[7] = 2.5x IC50, 32 h, single replicates
[8] = 3x IC50, 32 h, single replicates
[9] = single replicates, Control = 100

CCN(CC)CCCC(C)Nc1ccnc2cc(Cl)ccc12 (stereo not drawn) [CQ, chloroquine]
%Hb ([1]; 0.5x IC50, 32 h, Mean): 3.19% | %Hemozoin ([1]; 0.5x IC50, 32 h, Mean): 88.03% | Hb Fe (fg/troph) ([1]; 0.5x IC50, 32 h, Mean): 1.79 fg/troph | Heme Fe (fg/troph) ([1]; 0.5x IC50, 32 h, Mean): 4.89 fg/troph | Hemozoin Fe (fg/troph) ([1]; 0.5x IC50, 32 h, Mean): 48.61 fg/troph | Total Fe (fg/troph) ([1]; 0.5x IC50, 32 h, Mean): 57.03 fg/troph | %Hb [1, 3]: 3.1577% and 3.5151% and 3.0401% and 3.0419% | %Heme [1, 3]: 10.1984% and 8.3472% and 8.0733% and 8.4973% | %Hemozoin [1, 3]: 86.6439% and 88.1377% and 88.8867% and 88.4608% | Hb Fe (fg/troph) [1, 3]: 1.6883 fg/troph and 1.9552 fg/troph and 1.7265 fg/troph and 1.8935 fg/troph | Heme Fe (fg/troph) [1, 3]: 5.4527 fg/troph and 4.6429 fg/troph and 4.5850 fg/troph and 5.2894 fg/troph | Hemozoin Fe (fg/troph) [1, 3]: 46.3251 fg/troph and 49.0239 fg/troph and 50.4811 fg/troph and 55.0658 fg/troph | Total Fe (fg/troph) [1, 3]: 53.47 fg/troph and 55.62 fg/troph and 56.79 fg/troph and 62.25 fg/troph | effect on Hz levels [1, 4]: Hz levels only decreased significantly from 2 × IC50 | effect on undigested Hb [1, 4]: significant at 2.5 × IC50 of CQ only | effect on “free” heme [1, 4]: significant increase in “free” heme starting at 0.5 × IC50 | %Hb ([1]; 1x IC50, 32 h, Mean): 3.14% | %Hemozoin ([1]; 1x IC50, 32 h, Mean): 88.13% | Hb Fe (fg/troph) ([1]; 1x IC50, 32 h, Mean): 1.74 fg/troph | Heme Fe (fg/troph) ([1]; 1x IC50, 32 h, Mean): 5.05 fg/troph | Hemozoin Fe (fg/troph) ([1]; 1x IC50, 32 h, Mean): 48.59 fg/troph | Total Fe (fg/troph) ([1]; 1x IC50, 32 h, Mean): 56.08 fg/troph | %Hb [1, 5]: 2.4393% and 3.8543% and 3.1547% and 3.1175% | %Heme [1, 5]: 10.2450% and 7.2686% and 7.4306% | %Hemozoin [1, 5]: 87.3158% and 86.1923% and 89.5767% and 89.4519% | Hb Fe (fg/troph) [1, 5]: 1.3251 fg/troph and 2.0733 fg/troph and 1.8303 fg/troph and 1.8137 fg/troph | Heme Fe (fg/troph) [1, 5]: 5.5654 fg/troph and 5.3541 fg/troph and 4.2171 fg/troph and 4.3229 fg/troph | Hemozoin Fe (fg/troph) [1, 5]: 47.4331 fg/troph and 46.3642 fg/troph and 51.9709 fg/troph and 52.0405 fg/troph | Total Fe (fg/troph) [1, 5]: 54.32 fg/troph and 53.79 fg/troph and 58.02 fg/troph and 58.18 fg/troph | %Hb ([1]; 2x IC50, 32 h, Mean): 3.51% | %Hemozoin ([1]; 2x IC50, 32 h, Mean): 87.00% | Hb Fe (fg/troph) ([1]; 2x IC50, 32 h, Mean): 1.98 fg/troph | Heme Fe (fg/troph) ([1]; 2x IC50, 32 h, Mean): 5.58 fg/troph | Hemozoin Fe (fg/troph) ([1]; 2x IC50, 32 h, Mean): 48.43 fg/troph | Total Fe (fg/troph) ([1]; 2x IC50, 32 h, Mean): 56.59 fg/troph | %Hb [1, 6]: 3.5841% and 3.0885% and 3.9396% and 3.4358% | %Heme [1, 6]: 10.5037% and 10.6360% and 8.0922% | %Hemozoin [1, 6]: 85.9123% and 86.2755% and 87.3313% and 88.4720% | Hb Fe (fg/troph) [1, 6]: 2.0351 fg/troph and 1.7333 fg/troph and 2.1697 fg/troph and 2.0058 fg/troph | Heme Fe (fg/troph) [1, 6]: 5.9641 fg/troph and 5.9691 fg/troph and 4.8074 fg/troph and 4.7243 fg/troph | Hemozoin Fe (fg/troph) [1, 6]: 48.7818 fg/troph and 48.4187 fg/troph and 48.0959 fg/troph and 51.6502 fg/troph | Total Fe (fg/troph) [1, 6]: 56.78 fg/troph and 56.12 fg/troph and 55.07 fg/troph and 58.38 fg/troph | %Hb ([1]; 2.5x IC50, 32 h, Mean): 4.73% | %Heme ([1]; 2.5x IC50, 32 h, Mean): 10.26% | %Hemozoin ([1]; 2.5x IC50, 32 h, Mean): 85.01% | Hb Fe (fg/troph) ([1]; 2.5x IC50, 32 h, Mean): 2.72 fg/troph | Heme Fe (fg/troph) ([1]; 2.5x IC50, 32 h, Mean): 5.95 fg/troph | Hemozoin Fe (fg/troph) ([1]; 2.5x IC50, 32 h, Mean): 47.56 fg/troph | Total Fe (fg/troph) ([1]; 2.5x IC50, 32 h, Mean): 56.58 fg/troph | %Hb [1, 7]: 4.8862% and 4.8721% and 4.7430% and 4.4317% | %Heme [1, 7]: 10.8743% and 11.0956% | %Hemozoin [1, 7]: 84.2395% and 85.3413% and 84.1614% and 86.2810% | Hb Fe (fg/troph) [1, 7]: 2.8007 fg/troph and 2.7933 fg/troph and 2.5619 fg/troph and 2.5547 fg/troph | Heme Fe (fg/troph) [1, 7]: 6.2331 fg/troph and 5.6110 fg/troph and 5.9933 fg/troph and 5.3538 fg/troph | Hemozoin Fe (fg/troph) [1, 7]: 48.2856 fg/troph and 48.9290 fg/troph and 45.4601 fg/troph and 49.7378 fg/troph | Total Fe (fg/troph) [1, 7]: 57.32 fg/troph and 57.33 fg/troph and 54.02 fg/troph and 57.65 fg/troph | %Hb ([1]; 3x IC50, 32 h, Mean): 3.75% | %Heme ([1]; 3x IC50, 32 h, Mean): 14.98% | %Hemozoin ([1]; 3x IC50, 32 h, Mean): 81.27% | Hb Fe (fg/troph) ([1]; 3x IC50, 32 h, Mean): 2.01 fg/troph | Heme Fe (fg/troph) ([1]; 3x IC50, 32 h, Mean): 8.01 fg/troph | Hemozoin Fe (fg/troph) ([1]; 3x IC50, 32 h, Mean): 43.26 fg/troph | Total Fe (fg/troph) ([1]; 3x IC50, 32 h, Mean): 56.94 fg/troph | %Hb [1, 8]: 2.5119% and 4.3346% and 4.4230% and 3.7332% | %Heme [1, 8]: 15.7024% and 13.7857% and 15.6412% and 14.7736% | %Hemozoin [1, 8]: 81.7857% and 81.8796% and 79.9358% and 81.4933% | Hb Fe (fg/troph) [1, 8]: 1.3141 fg/troph and 2.3188 fg/troph and 2.3892 fg/troph and 2.5358 fg/troph | Heme Fe (fg/troph) [1, 8]: 8.2149 fg/troph and 7.3747 fg/troph and 8.4490 fg/troph and 10.0350 fg/troph | Hemozoin Fe (fg/troph) [1, 8]: 42.7874 fg/troph and 43.8015 fg/troph and 43.1792 fg/troph and 55.3544 fg/troph | Total Fe (fg/troph) [1, 8]: 52.32 fg/troph and 53.50 fg/troph and 54.02 fg/troph and 67.93 fg/troph | activity at 10 µM ([2]; Mean, Control mean 96.63): 43.2% | activity at 10 µM [2, 9]: 38.1% | activity at 25 µM ([2]; Mean, Control mean 96.63): 14.4% | activity at 25 µM [2, 9]: 12.7% | activity at 50 µM ([2]; read-out: % Inhibition of ookinete conversion, 50 uM, Mean, Control mean 96.63): 0.49% | activity at 100 µM ([2]; Mean, Control mean 96.63): 0.22% | activity at 100 µM [2, 9]: 0.2% | inhibition at 10 µM ([2]; read-out: inhibition of zygote conversion into ookinetes): 56.7%
